28 compounds from patent publication US8299056B2 (Signal Pharmaceuticals, LLC, priority 2008, dated 2012) can be followed below.

The structures appear in SMILES notation. pIC50: −log10 of the molar value.

One assay concerns the target T1, Syk (Homo sapiens, UniProt P43405).
T1 construct: purchased Carna Biosciences
The experiment in a line: Syk HTRF assay. Format: biochemical. To be noted: IC50 activity level, read-out: Activity Level. The procedure:
Test compounds were prepared at a concentration of 1.5 mM in DMSO followed by 3-fold dilutions in Greiner […] polypropylene plates. A 1:4 dilution of compounds by 8 μL/well transfer from the polypropylene plates to 24 μL/well Assay Buffer in Costar 3710 384 well black plates was then performed. Kinases (13 μL/well) or Assay Buffer only (background controls; 50 mM HEPES pH 7.6, 1 mM DTT, 10 mM MgCl2, 0.01% Triton X100, 0.01% BSA and 0.1 mM EDTA) were added to Costar 3710 384-well black plates for the HTRF assays (Carna Biosciences) and compound was added from the 1:4 dilution plate. Syk start mix (87.5 μM ATP, 80 nM Substrate Peptide (American Peptide Company 332722) was added and the mixture was incubated at room temperature for 1 hour. Syk Stop Solution (120 mM EDTA in dilution buffer) was then added to the Syk HTRF assay plate and incubated at room temperature on a shaker for 2 minutes. Syk Antibody Mix (4.86 μg/mL DyLight 647 Streptavidin (Pierce 21824); 1 μg/mL Lance Eu-Anti-Phosphotyrosine (PerkinElmer AD0069)) was added to the Syk HTRF assay plate and the mixture was further incubated at room temperature for >4 h. Time resolved fluorescence was read in assay plates on a PerkinElmer EnVision. HTRF assays were performed using 320 nm excitation, 60 μs delay, 665 nm and 615 nm emission. Data was expressed by division of 665 nm by 615 nm emissions.
(TR-FRET usually uses a lanthanide donor and a delayed reading to cut background.)
`Cc1nnc2cc(Nc3nc4cccc(NC5CCOCC5)n4n3)ccn12` [Example 534, N^2-(3-methyl-[1,2,4]triazolo[4,3-a]pyridin-7-yl)-N^5-(tetrahydro-2H-pyran-4-yl)-[1,2,4]triazolo[1,5-a]pyridine-2,5-diamine]: the pIC50 is 5.00 to 6.00. As for `NC(=O)c1ccc(Nc2nc3cccc(NC4CCNCC4)n3n2)cc1` [Example 516, 4-(5-(piperidin-4-ylamino)-[1,2,4]triazolo[1,5-a]pyridin-2-ylamino)benzamide], the pIC50 was 5.00 to 6.00.

For `Cc1conc1-c1cccc2nc(Nc3ccccc3)nn12` [Example 435, 5-(4-methylisoxazol-3-yl)-N-phenyl-[1,2,4]triazolo[1,5-a]pyridin-2-amine], the pIC50 was 5.00 to 6.00. Turning to `O[C@H]1CC[C@@H](Nc2cccc3nc(Nc4cnc5cn[nH]c5c4)nn23)CC1` [Example 553, cis-4-(2-(1H-pyrazolo-[4,3-b]pyridin-6-ylamino)-[1,2,4]triazolo[1,5-a]pyridin-5-ylamino)cyclohexanol], the pIC50 is 6.60 to 11.30. Same read-out and setting: the result for `NC(=O)c1nc2ccc(-c3cccc4nc(Nc5ccc(C(F)(F)F)cc5)nn34)cc2[nH]1` [Example 408, 6-(2-(4-(trifluoromethyl)phenylamino)-[1,2,4]triazolo[1,5-a]pyridin-5-yl)-1H-benzo[d]imidazole-2-carboxamide] reads 6.60 to 11.30. For `O[C@H]1CC[C@@H](Nc2cccc3nc(Nc4ccc(C(F)(F)F)cc4)nn23)CC1` [Example 453, cis-4-(2-(4-(trifluoromethyl)phenylamino)-[1,2,4]triazolo[1,5-a]pyridin-5-ylamino)cyclohexanol], the pIC50 is 6.60 to 11.30. Consider `FC(F)(F)c1n[nH]c2cc(Nc3nc4cccc(CC5CCOCC5)n4n3)ccc12` [Example 540, 5-((tetrahydro-2H-pyran-4-yl)methyl)-N-(3-(trifluoromethyl)-1H-indazol-6-yl)-[1,2,4]triazolo[1,5-a]pyridin-2-amine], for which the pIC50 was 6.60 to 11.30.

For `NC(=O)c1cccc(Cc2cccc3nc(Nc4ccccc4)nn23)c1` [Example 442, 3-((2-(phenylamino)-[1,2,4]triazolo[1,5-a]pyridin-5-yl)methyl)benzamide], the pIC50 is 6.30 to 6.60. Take `c1cc(CC2CCOCC2)n2nc(Nc3ccc(-c4nc[nH]n4)cc3)nc2c1` [Example 557, N-(4-(1H-1,2,4-triazolo-3-yl)phenyl)-5-((tetrahydro-2H-pyran-4-yl)methyl)-[1,2,4]triazolo[1,5-a]pyridin-2-amine]: the pIC50 is 6.00 to 6.30. As to `NCCn1cnc2ccc(-c3cccc4nc(Nc5ccccc5)nn34)cc21` [Example 515, 5-(1-(2-aminoethyl)-1H-benzo[d]imidazol-6-yl)-N-phenyl-[1,2,4]triazolo[1,5-a]pyridin-2-amine], the pIC50 is 5.00 to 6.00.

The same assay, now with this note: activity levels A-D, read-out: Activity Level (IC50 in the Syk HTRF assay).
In the case of `N#Cc1cc(Nc2nc3cccc(N[C@H]4CC[C@@H](O)CC4)n3n2)ccn1` [Example 256, cis-4-(5-(4-hydroxycyclohexylamino)-[1,2,4]triazolo[1,5-a]pyridin-2-ylamino)picolinonitrile], the pIC50 is 6.00 to 6.30. Regarding `O[C@H]1CC[C@@H](Nc2cccc3nc(Nc4ccncc4)nn23)CC1` [Example 389, cis-4-(2-(pyridin-4-ylamino)-[1,2,4]triazolo[1,5-a]pyridin-5-ylamino)cyclohexanol], the pIC50 was 5.00 to 6.00. For `Cc1n[nH]c2cc(Nc3nc4cccc(CN5CCNC(=O)C5)n4n3)ccc12` [Example 235, 4-((2-(3-methyl-1H-indazol-6-ylamino)-[1,2,4]triazolo[1,5-a]pyridin-5-yl)methyl)piperazin-2-one], the pIC50 was 6.60 to 11.30. Consider `CNC(=O)c1ccc(Nc2nc3cccc(N[C@H]4CC[C@@H](N)CC4)n3n2)cc1` [Example 360, 4-(5-(cis-4-aminocyclohexylamino)-[1,2,4]triazolo[1,5-a]pyridin-2-ylamino)-N-methylbenzamide], for which the pIC50 is 6.00 to 6.30.

Consider `OC[C@H]1CCCN1c1cccc2nc(Nc3ccc(C(F)(F)F)cc3)nn12` [Example 288, (R)-(1-(2-(4-(trifluoromethyl)phenylamino)-[1,2,4]triazolo[1,5-a]pyridin-5-yl)pyrrolidin-2-yl)methanol], for which the pIC50 was 6.30 to 6.60. On the same count and under the same terms, the figure for `CNC(=O)c1ccc(Nc2nc3cccc(N4CCCC4)n3n2)cc1` [Example 251, N-methyl-4-(5-(pyrrolidin-1-yl)-[1,2,4]triazolo[1,5-a]pyridin-2-ylamino)benzamide] is 6.30 to 6.60.

Staying with this assay, now noted: read-out: Activity Level (Syk HTRF assay IC50).
Turning to `CC(=O)Nc1cccc(-c2cccc3nc(Nc4ccccc4)nn23)c1` [compound 78, N-(3-(2-(phenylamino)-[1,2,4]triazolo[1,5-a]pyridin-5-yl)phenyl)acetamide], the pIC50 is 5.00 to 6.00.

In the case of `Cc1n[nH]c2ccc(Nc3nc4cccc(N[C@@H]5CCOC5)n4n3)cc12` [compound 115], the pIC50 is 6.30 to 6.60. In the case of `O=C(NC1CCNCC1)c1ccc(Nc2nc3cccc(-c4ccccc4)n3n2)cc1` [compound 77, 4-(5-phenyl-[1,2,4]triazolo[1,5-a]pyridin-2-ylamino)-N-(piperidin-4-yl)benzamide], the pIC50 was 6.60 to 11.30. As to `O[C@H]1CC[C@@H](Nc2cccc3nc(Nc4cnc5cn[nH]c5c4)nn23)CC1` [compound 107], the pIC50 is 6.60 to 11.30. On to `O=C1CCCN1c1ccc(Nc2nc3cccc(-c4ccccc4)n3n2)cc1` [compound 50], for which the pIC50 was 6.60 to 11.30. As to `CC1(C)C(=O)Nc2cc(Nc3nc4cccc(O[C@H]5CCOC5)n4n3)ccc21` [compound 133, (S)-3,3-dimethyl-6-(5-(tetrahydrofuran-3-yloxy)-[1,2,4]triazolo[1,5-a]pyridin-2-ylamino)indolin-2-one], the pIC50 is 6.30 to 6.60. As for `CN1Cc2cc(Nc3nc4cccc(CC5CCOCC5)n4n3)ccc2C1=O` [Example 145, 2-methyl-5-(5-((tetrahydro-2H-pyran-4-yl)methyl)-[1,2,4]triazolo[1,5-a]pyridin-2-ylamino)isoinoldin-1-one], the pIC50 was 6.00 to 6.30.

As to `CC1(C)C(=O)Nc2cc(Nc3nc4cccc(C(O)C5CCOCC5)n4n3)ccc21` (stereo not shown) [Example 173, 6-(5-(hydroxy(tetrahydro-2H-pyran-4-yl)methyl)-[1,2,4]triazolo[1,5-a]pyridin-2-ylamino)-3,3-dimethylindolin-2-one], the pIC50 was 6.30 to 6.60. The same measure, in the same setting: the figure for `Cc1n[nH]c2cc(Nc3nc4cccc(NC[C@@H]5CCC(O)C5)n4n3)ccc12` (stereo in doubt) [Example 179, (1R,3R)-3-((2-(3-methyl-1H-indazol-6-ylamino)-[1,2,4]triazolo[1,5-a]pyridin-5-ylamino)methyl)cyclopentanol] is 6.60 to 11.30; for `Cn1nnc2ccc(Nc3nc4cccc(-c5cccc(O)c5)n4n3)cc21` [compound 28, 3-(2-(1-methyl-1H-benzo[d][1,2,3]triazol-6-ylamino)-[1,2,4]triazolo[1,5-a]pyridin-5-yl)phenol] it is 6.60 to 11.30. For `NC(=O)c1cc(Nc2nc3cccc(-c4ccccc4)n3n2)ccn1` [compound 51, 4-(5-phenyl-[1,2,4]triazolo[1,5-a]pyridin-2-ylamino)picolinamide], the pIC50 is 5.00 to 6.00. Regarding `CC(=O)N1CCc2cc(Nc3nc4cccc(-c5ccccc5)n4n3)ccc21` [compound 60, 1-(5-(5-phenyl-[1,2,4]triazolo[1,5-a]pyridin-2-ylamino)indolin-1-yl)ethanone], the pIC50 was 6.60 to 11.30.
